# Numbered stars: 1 amine (or outer) side, 2 acyl side, 3 side chain; on linkers, the order of the positions; unused ones are H or OH. Bridge positions count the residues as written; N and C are the ends. Square brackets hold non-standard residues; d marks the D form. Peptide text beside a SMILES is read from it. * marks the point of attachment. ξ: configuration not given here. Phe(3-CF3) = N[C@@H](Cc1cccc(C(F)(F)F)c1)C(=O)O; Bip = N[C@@H](Cc1ccc(-c2ccccc2)cc1)C(=O)O; Nle(6-COOH) = N[C@@H](CCCCC(=O)O)C(=O)O; NH(CH2)14COOH = O=C(O)CCCCCCCCCCCCCCN*; Phe(3-Me) = Cc1cccc(C[C@H](N)C(=O)O)c1; NH(CH2)12COOH = O=C(O)CCCCCCCCCCCCN*; X4 = O=C([C@@H](N[*:1])C1CNC1)[*:2]; Val(3-OH) = CC(C)(O)[C@H](N)C(=O)O; hArg = N=C(N)NCCCC[C@H](N)C(=O)O; Cha = N[C@@H](CC1CCCCC1)C(=O)O; Cit = NC(=O)NCCC[C@H](N)C(=O)O; Thr(3ξ) = CC(O)[C@H](N)C(=O)O; 12Ado = NCCCCCCCCCCCC(=O)O; Carboxymethyl = O=C(O)C*; Orn = NCCC[C@H](N)C(=O)O; Aun = NCCCCCCCCCCC(=O)O; Dab = NCC[C@H](N)C(=O)O; Dap = NC[C@H](N)C(=O)O; AEEA = NCCOCCOCC(=O)O
# Target: T1, PD-1/PD-L1 interaction (PE-labeled human PD-L1-Ig binding to Jurkat cell line over-expressing human PD-1) (Homo sapiens, UniProt Q15116)
# T1 construct: expressed in transfected cells; host or cells: Jurkat
# T1 sequence (Q15116 25-288): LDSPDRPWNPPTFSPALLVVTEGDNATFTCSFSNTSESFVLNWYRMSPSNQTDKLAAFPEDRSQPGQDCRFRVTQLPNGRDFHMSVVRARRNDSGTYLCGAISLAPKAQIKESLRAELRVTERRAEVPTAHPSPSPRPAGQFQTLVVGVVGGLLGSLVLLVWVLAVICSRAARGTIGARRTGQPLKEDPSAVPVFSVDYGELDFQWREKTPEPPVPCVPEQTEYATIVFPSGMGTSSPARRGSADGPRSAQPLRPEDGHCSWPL
# Assay: Jurkat-PD-1 Cell Binding High-Content Screening Assay (CBA)
# Type: cell-based
# Details: Jurkat cell line over-expressing human PD-1; PE-labeled PD-L1-Ig 20 nM final; read-out: Jurkat hPD1-PDL1 IC50
# How it was run: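 Human PD-L1-Ig carrying a covalent PE label on its Ig tag serves as the probe, applied at 20 nM final to compound-treated (2 h, 37° C) Jurkat-hPD-1 cells in medium with 10% fetal calf serum. After one hour, fixation and nuclear staining precede high-content image analysis.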
row,IC50,SMILES
1,44.6 nM,CC(C)C[C@H]1NC(=O)[C@H](CCCN)NC(=O)[C@H](C(C)C)NC(=O)[C@H](Cc2ccc(-c3ccccc3)cc2)NC(=O)[C@H](C(C)C)NC(=O)[C@H](Cc2c[nH]c3ccccc23)NC(=O)[C@H](CC(=O)O)NC(=O)[C@H](Cc2ccc(OCC(=O)O)cc2)NC(=O)[C@H](CCCCNC(=N)N)NC(=O)CSC[C@@H](C(=O)N[C@@H](CCCCN)C(=O)NCCCCCCCCCCCC(=O)O)NC(=O)[C@H](CO)NC(=O)[C@H](C(C)C)NC(=O)[C@H](CC2CCCCC2)NC(=O)[C@H](Cc2cnc[nH]2)NC1=O [Compound 3155] ({CH2CO}-[hArg]Y(Carboxymethyl)DWV[Bip]V[Orn][dL]H[Cha]VSCK[12Ado]-OH; thioether N-14)
2,13.6 nM,Cc1cccc(C[C@@H]2NC(=O)[C@H](CC(=O)O)NC(=O)[C@H](Cc3ccc(OCC(=O)O)cc3)NC(=O)[C@H](C3CNC3)NC(=O)CSC[C@@H](C(=O)N[C@@H](CCN)C(=O)NCCCCCCCCCCCCC(=O)O)NC(=O)[C@H](CO)NC(=O)[C@H](C(C)(C)O)NC(=O)[C@H](CC3CCCCC3)NC(=O)[C@H](CCN)NC(=O)[C@@H](CC(C)C)NC(=O)[C@H](CCCN)NC(=O)[C@H](Cc3ccc(OCC(=O)O)cc3)NC(=O)[C@H](Cc3ccc(-c4ccccc4)cc3)NC(=O)[C@H](Cc3ccc(OCC(=O)O)cc3)NC2=O)c1 [Compound 2256] ({CH2CO}-[X4]Y(Carboxymethyl)D[Phe(3-Me)]Y(Carboxymethyl)[Bip]Y(Carboxymethyl)[Orn][dL][Dab][Cha][Val(3-OH)]SC[Dab]-{NH(CH2)12COOH}; thioether N-14)
3,9 nM,Cc1cccc(C[C@@H]2NC(=O)[C@H](CC(=O)O)NC(=O)[C@H](Cc3ccc(OCC(=O)O)cc3)NC(=O)[C@H](CCCNC(=N)N)NC(=O)CSC[C@@H](C(=O)N[C@@H](CCN)C(=O)NCCCCCCCCCCC(=O)O)NC(=O)[C@H](CCCNC(N)=O)NC(=O)[C@H](C(C)C)NC(=O)[C@H](CC3CCCCC3)NC(=O)[C@H](CCN)NC(=O)[C@@H](CC(C)C)NC(=O)[C@H](CCCN)NC(=O)[C@H](CCCCC(=O)O)NC(=O)[C@H](Cc3ccc(-c4ccccc4)cc3)NC(=O)[C@H](C(C)C)NC2=O)c1 [Compound 3390] ({CH2CO}-RY(Carboxymethyl)D[Phe(3-Me)]V[Bip][Nle(6-COOH)][Orn][dL][Dab][Cha]V[Cit]C[Dab][Aun]-OH; thioether N-14)
4,17 nM,Cc1cccc(C[C@@H]2NC(=O)[C@H](CC(=O)O)NC(=O)[C@H](Cc3ccc(OCC(=O)O)cc3)NC(=O)[C@H](C(C)O)NC(=O)CSC[C@@H](C(=O)NCCOCCOCC(=O)NCCCCCCCCCCC(=O)O)NC(=O)[C@H](C(C)O)NC(=O)[C@H](C(C)C)NC(=O)[C@H](CC3CCCCC3)NC(=O)[C@H](CCN)NC(=O)[C@@H](CC(C)C)NC(=O)[C@H](CCCN)NC(=O)[C@H](CCCNC(N)=O)NC(=O)[C@H](Cc3ccc(-c4ccccc4)cc3)NC(=O)[C@H](C(C)C)NC2=O)c1 (stereo partly drawn) [Compound 3460] ({CH2CO}-[Thr(3ξ)]Y(Carboxymethyl)D[Phe(3-Me)]V[Bip][Cit][Orn][dL][Dab][Cha]V[Thr(3ξ)]C[AEEA][Aun]-OH; thioether N-14)
5,8.2 nM,Cc1cccc(C[C@@H]2NC(=O)[C@H](CC(=O)O)NC(=O)[C@H](Cc3ccc(OCC(=O)O)cc3)NC(=O)[C@H](CN)NC(=O)CSC[C@@H](C(=O)N[C@@H](CCN)C(=O)NCCOCCOCC(=O)NCCCCCCCCCCC(=O)O)NC(=O)[C@H](CCCN)NC(=O)[C@H](C(C)C)NC(=O)[C@H](CC3CCCCC3)NC(=O)[C@H](CCN)NC(=O)[C@@H](CC(C)C)NC(=O)[C@H](CCCN)NC(=O)[C@H](Cc3ccccc3)NC(=O)[C@H](Cc3ccc(-c4ccccc4)cc3)NC(=O)[C@H](Cc3ccc(O)cc3)NC2=O)c1 [Compound 2041] ({CH2CO}-[Dap]Y(Carboxymethyl)D[Phe(3-Me)]Y[Bip]F[Orn][dL][Dab][Cha]V[Orn]C[Dab][AEEA][Aun]-OH; thioether N-14)
6,39.5 nM,Cc1cccc(C[C@@H]2NC(=O)[C@H](CC(=O)O)NC(=O)[C@H](Cc3ccc(OCC(=O)O)cc3)NC(=O)[C@H](CN)NC(=O)CSC[C@@H](C(=O)N[C@@H](CCN)C(=O)NCCCCCCCCCCC(=O)O)NC(=O)[C@@H]([C@H](C)O)NC(=O)[C@H](C(C)C)NC(=O)[C@H](CC(C)C)NC(=O)[C@H](CCN)NC(=O)[C@@H](CC(C)C)NC(=O)[C@H](CCCN)NC(=O)[C@H](Cc3ccc(O)cc3)NC(=O)[C@H](Cc3ccc(-c4ccccc4)cc3)NC(=O)[C@H](C(C)C)NC2=O)c1 [Compound 2771] ({CH2CO}-[Dap]Y(Carboxymethyl)D[Phe(3-Me)]V[Bip]Y[Orn][dL][Dab]LV[dT]C[Dab][Aun]-OH; thioether N-14)
7,23.4 nM,Cc1cccc(C[C@@H]2NC(=O)[C@H](CC(=O)O)NC(=O)[C@H](Cc3ccc(OCC(=O)O)cc3)NC(=O)[C@H](C(C)O)NC(=O)CSC[C@@H](C(=O)NCCOCCOCC(=O)NCCCCCCCCCCC(=O)O)NC(=O)[C@H](Cc3cnc[nH]3)NC(=O)[C@H](C(C)O)NC(=O)[C@H](CC3CCCCC3)NC(=O)[C@H](CCN)NC(=O)[C@@H](CC(C)C)NC(=O)[C@H](CCCN)NC(=O)[C@H](C(C)C)NC(=O)[C@H](Cc3ccc(-c4ccccc4)cc3)NC(=O)[C@H](C(C)C)NC2=O)c1 (stereo partly drawn) [Compound 3703] ({CH2CO}-[Thr(3ξ)]Y(Carboxymethyl)D[Phe(3-Me)]V[Bip]V[Orn][dL][Dab][Cha][Thr(3ξ)]HC[AEEA][Aun]-OH; thioether N-14)
8,13.7 nM,CC(C)C[C@H]1NC(=O)[C@H](CCN)NC(=O)[C@H](C(C)C)NC(=O)[C@H](Cc2ccc(-c3ccccc3)cc2)NC(=O)[C@H](C(C)C)NC(=O)[C@H](Cc2c[nH]c3ccccc23)NC(=O)[C@H](CC(=O)O)NC(=O)[C@H](Cc2ccc(OCC(=O)O)cc2)NC(=O)[C@H](CCCCNC(=N)N)NC(=O)CSC[C@@H](C(=O)NCCOCCOCC(=O)N[C@@H](CCCN)C(=O)NCCCCCCCCCCC(=O)O)NC(=O)[C@H](C(C)O)NC(=O)[C@H](C(C)C)NC(=O)[C@H](CC2CCCCC2)NC(=O)[C@H](CCN)NC1=O (stereo partly drawn) [Compound 3212] ({CH2CO}-[hArg]Y(Carboxymethyl)DWV[Bip]V[Dab][dL][Dab][Cha]V[Thr(3ξ)]C[AEEA][Orn][Aun]-OH; thioether N-14)
9,142 nM,CC(C)C[C@H]1NC(=O)[C@H](CCCN)NC(=O)[C@H](Cc2ccc(OCC(=O)O)cc2)NC(=O)[C@H](Cc2ccc(-c3ccccc3)cc2)NC(=O)[C@H](Cc2ccc(OCC(=O)O)cc2)NC(=O)[C@H](Cc2cccc(C(F)(F)F)c2)NC(=O)[C@H](CC(=O)O)NC(=O)[C@H](Cc2ccc(OCC(=O)O)cc2)NC(=O)[C@H](C)NC(=O)CSC[C@@H](C(=O)N[C@@H](CCN)C(=O)NCCCCCCCCCCCCCCC(=O)O)NC(=O)[C@H](Cc2cnc[nH]2)NC(=O)[C@H](C(C)(C)O)NC(=O)[C@H](CC2CCCCC2)NC(=O)[C@H](CCN)NC1=O [Compound 3852] ({CH2CO}-AY(Carboxymethyl)D[Phe(3-CF3)]Y(Carboxymethyl)[Bip]Y(Carboxymethyl)[Orn][dL][Dab][Cha][Val(3-OH)]HC[Dab]-{NH(CH2)14COOH}; thioether N-14)
